System: mESC Bmi1-luciferase reporter, firefly/renilla ratio, 24 h
Test: Bmi1-luciferase reporter activators in mESC, dose response, esBAF inhibitor project, mouse embryonic stem cells, cherry-pick (AID 651717);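 further: luciferase knocked into Bmi1 locus with EF-1a renilla as cell number control; rising ratio signals esBAF inhibition which derepresses Bmi1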

Row | SMILES | AC40 [µM]
1 | COc1ccc(-c2cc(C(=O)N3CCN(c4ccccc4O)CC3)c3ccccc3n2)cc1 | 3.16
2 | Nc1ccc2c(c1)Cc1cc(N)c(Cl)cc1-2 | 3.41
3 | Nc1nc(SCc2ccccc2)sc1C(=O)N1CCCCC1 | 2.53
4 | COc1ccc(C2Nc3ccccc3C(=O)N2c2ccc(C)cc2)cc1Cn1nc(C)c([N+](=O)[O-])c1C (stereo not drawn) | 12.6
5 | CC1CCC(NC(=O)c2cc3ccccc3cc2O)CC1 (stereo not drawn) | 0.967
6 | CN(C)S(=O)(=O)c1ccc2c(c1)/C(=C/c1cc3c([nH]1)CCCC3)C(=O)N2 | 3.25
7 | c1csc(Cc2nc3ccccc3[nH]2)c1 | 16.2
8 | N/C(=N\OC(=O)C1CCCCC1)c1ccc(Cl)cc1 | 6.24
9 | CC1CCN(C(=O)CCc2nnc(-c3ccccc3)o2)CC1 | 4.2
10 | O=C(NCCCc1ccccc1)c1ccccc1O | 10.7
11 | O=C(O)c1ccc2c(c1)C(=O)N(CCc1c[nH]c3ccccc13)C2=O | 5.77
12 | Cc1ccc(SCCN2CCC(C)CCC2=O)cc1 (stereo not drawn) | 2.74
13 | CCN(CC)C(=O)OCc1c(-c2ccccc2)ncc2ccccc12 | 2.25
14 | O=C1c2ccccc2C2N1CCCN2C(=O)c1sc2ccccc2c1Cl (stereo not drawn) | 4.3
15 | CCCN1CCN(CCCNC(=O)c2ccc3nc(N4CCCCC4)sc3c2)CC1 | 13.3
16 | COc1ccccc1CNc1nc2cc(-c3sccc3C)sc2c(=O)n1C | 6.95
17 | CCC(C)NC(=O)c1cc(CC(C)C)on1 (stereo not drawn) | 6.83
18 | CC(NC(=O)c1cc(COc2ccc(-n3cncn3)cc2)on1)c1ccc(F)cc1 (stereo not drawn) | 5.4
19 | CCCC(=O)Nc1nc(-c2ccc(OC)cc2)cs1 | 7.09
20 | COc1ccc(OCc2cc(C(=O)NC(C)c3nc(C)cs3)no2)c(Cl)c1 (stereo not drawn) | 10.4
21 | Cc1cc2nc(N3CCN(C(=O)c4cccs4)CC3)sc2cc1C | 1.98
22 | CC(O)(c1ccccc1)c1nc(-c2cccc(C(=O)O)c2)cs1 (stereo not drawn) | 4.13

Row | SMILES | AC40 [µM]
23 | Cc1nn(Cc2c(F)c(F)c(F)c(F)c2F)c(C)c1NC(=O)c1ccc(COc2cc(Cl)ccc2Cl)cc1 | 3.23
24 | Cc1ccc(CNC(=O)c2ccc(Cn3cc(-c4ccc(C)cc4)nc3-c3ccncc3)cc2)cc1 | 1.77
25 | Cc1ccc(NC(=O)C2CCCN(C(=O)c3ccc(Cl)cc3)C2)cc1C (stereo not drawn) | 6.09
26 | CCOc1ccc2nc(NC(=O)CSc3nnc(-c4ccncc4)n3CC3CCCO3)sc2c1 (stereo not drawn) | 7.34
27 | Cc1noc(C)c1-c1csc(N2CCC(C(N)=O)CC2)n1 | 0.444
28 | CCCn1cnc2c(SCCc3ccccc3)nc(N)nc21 | 7.67
29 | Clc1ccc(-c2csc(N3CCSCC3)n2)cc1 | 5.65
30 | Cc1ccc(C(=O)Nc2cccc(O)c2)cc1S(=O)(=O)N1CCCCCC1 | 14.5
31 | COc1ccc(-n2nc(C(=O)NCC(=O)N3CCCC3)c3ccccc3c2=O)cc1Cl | 20.9
32 | COc1ccccc1C(=O)Nc1sc2c(c1C#N)CCC2 | 2.15
33 | Clc1ccc(-c2nc(Cc3ccccc3)no2)cc1 | 1.85
34 | COC(=O)c1ccc2nc(-c3cccc(Cl)c3)c(Cc3ccsc3)n2c1 | 7.98
35 | O=C(NCCc1ccc(F)cc1)c1ccc2c(=O)n3c(nc2c1)CCC3 | 5.89
36 | COc1ccc(/C=N/OCc2ccccc2C#N)c(OC)c1 | 6.27
37 | CN(C)S(=O)(=O)c1cccc(C(=O)Nc2ccc(Cl)cn2)c1 | 5.04
38 | Cn1c(-c2ncc(F)cc2F)cc2onc(-c3c(F)cccc3Cl)c2c1=O | 0.47
39 | O=C(c1cc(COc2cccc(C(F)(F)F)c2)on1)N1CCCC1 | 17.5
40 | CCCCN(Cc1ccccc1)c1ncnc2nc[nH]c12 | 10.1
41 | CCN(CC)S(=O)(=O)c1ccc2c(c1)nc(-c1ccccn1)n2C | 11.1
42 | COc1ccc2nc3sc(C(=O)NCCN4CCc5ccccc5C4)cc3cc2c1 | 5.77
43 | NC(=O)c1ccc(CSc2nc3ccccc3s2)cc1 | 4.64
44 | COc1cc2c(cc1OC)C(=Cc1ccc(N(C)C)cc1)C=C2 | 2.44

Row | SMILES | AC40 [µM]
45 | Cc1nc(C)c(-c2csc(Nc3ccc(Cl)cn3)n2)s1 | 8.77
46 | Cc1cccc(N=[N+]([O-])c2cccc(C)n2)n1 | 6.4
47 | Cc1ccn2cc(C(=O)Nc3nnc(C)s3)nc2c1 | 1.17
48 | CCc1nc(SCc2ccc(Br)cc2)n[nH]1 | 2.5
49 | CC(NC(=O)c1cc(COc2cccc(C(F)(F)F)c2)on1)c1nccs1 (stereo not drawn) | 6.45
50 | Brc1ccccc1-c1nnc(-c2cccnc2)o1 | 6.08
51 | Cc1cc(Cl)nc(NC(=O)Nc2cccc(Cl)c2)n1 | 0.66
52 | COc1cccc(NC(=O)C(=O)NCCC2CCCCN2S(=O)(=O)c2ccccc2)c1 (stereo not drawn) | 2.93
53 | O=C(Nc1cccc(O)c1)c1ccc(Br)c(S(=O)(=O)N2CCCCC2)c1 | 17.6
54 | COc1ccc(C(=O)NCCS(=O)(=O)NCCc2ccccc2)cc1 | 0.726
55 | CC1CCc2c(sc(NC(=O)c3cccn3C)c2C(N)=O)C1 (stereo not drawn) | 3.63
56 | Cc1c(Cl)cccc1NC(=O)c1cc(C2CC2)on1 | 1.81
57 | Cc1nc(-c2ccccc2)nc2[nH]ccc(=O)c12 | 4.23
58 | COC(=O)c1ccc2[nH]c(C3(O)CCCCC3)c(C)c2c1 | 5.55
59 | O=C(c1noc2c1CCCC2)N1CCc2ccccc2C1 | 2.99
60 | CC(C)N1CC2(CC(c3ccccc3F)=NO2)CN1C(=O)c1ccc(C(C)(C)C)cc1 (stereo not drawn) | 4.08
61 | C=CCNc1nc(NCc2cccc(OC)c2)c2sc(-c3ccccc3)cc2n1 | 1.86
62 | O=C(Cc1ccccc1)N/N=C/c1ccccc1OCc1ccc(Cl)cc1 | 4.61
63 | Clc1ccc(-c2nnc(-c3cccc4ccccc34)o2)cc1 | 1.79
64 | Cc1cccc(N/N=C/c2ccc(C)s2)c1 | 2.91
65 | O=C1N=C(N2CCCCC2)S/C1=C\c1ccccc1F | 2.67
66 | COc1ccc(C(=O)CCc2ccccc2O)c(OC)c1 | 3.58

Row | SMILES | AC40 [µM]
67 | COc1ccc(C(=O)NCc2ccc(-c3nc4ccccc4s3)cc2)cc1 | 6.13
68 | Cc1cccc(NC(=O)c2cc(-c3cc(Cl)ccc3O)n[nH]2)c1 | 2.08
69 | Cc1csc(-c2ccc3cc(Cl)cc(Cl)c3n2)n1 | 5.82
70 | Cc1ccc(OCc2cnc(Cl)s2)c(C)c1 | 4.12
71 | O=C(Cc1ccccc1)Nc1ccc2c(c1)OC1(CCCC1)O2 | 3.73
72 | COc1ccccc1-c1cnc(C(O)c2ccc(C)cc2)[nH]1 (stereo not drawn) | 10.2
73 | Cc1ccc(NC(=O)Nc2ccc(F)c(Cl)c2)cc1 | 1.85
74 | CCC(=O)c1ccc(N2CCC(C)CC2)c(F)c1 | 2.04
75 | CC(=O)Nc1ccc(CNc2nc3cc(-c4ccsc4)sc3c(=O)n2C)cc1 | 6.16
76 | CC(=O)c1cccc(OCc2cc(C(=O)NCCC3=CCCCC3)no2)c1 | 1.23
77 | COc1cc(/C=C/c2nc3ccccc3c(=O)[nH]2)ccc1OC(F)F | 1.6
78 | FC(F)(F)c1ccccc1Cc1c(-c2cccc(Br)c2)nc2c3ccccc3ccn12 | 9.57
79 | CNc1oc(-c2ccc(OCc3ccccc3)cc2)nc1C#N | 24.4
80 | COc1ccc(CNC(=O)Nc2cccc(C)c2)cc1 | 5.8
81 | CC(C)C(=O)Nc1ccc(C(=O)c2ccccc2)cc1 | 8.18
82 | O=C(c1c(F)cccc1F)N1CCCC(c2nc(-c3cccs3)no2)C1 (stereo not drawn) | 11.8
83 | Cc1ccc(NC(=O)C2CCN(S(=O)(=O)c3ccc4ccccc4c3)CC2)nc1 | 6.53
84 | Cc1cc2oc(=O)cc(CN3CCC(C)CC3)c2c(C)c1Cl | 4.55
85 | CCn1c(C)nc2cc(C(=O)NN=Cc3ccccc3OC(F)F)ccc21 | 1.96
86 | ON=C(CCc1ccccc1)c1ccccc1 | 0.977
87 | O=C(NC1CCCCC1)c1cc(-c2cccc(Cl)c2)on1 | 6.04
88 | COc1cccc(N2CCN(C(=O)c3ccc4nc(N5CCCCC5)sc4c3)CC2)c1 | 5.88

— PubChem BioAssay AID651717 (Broad Institute, 2012)
